Measurements from patent EP3898610B1, “NOVEL AZA-HEXAPHENE ANTIBIOTIC COMPOUNDS” (Fondazione Istituto Insubrico di Ricerca per la Vita, priority 2018, dated 2020).
≈ marks a conversion by molar mass, not a printed value. Where two headings read alike, the source gives them in different places.

Legend:
Solubility = type: physicochemical
Method: (§1) Solubility of compound 1 (103/33 F-710) was poor in most low to medium- polarity organic solvents, as well as in water from acidic to neutral pH; it was more soluble at basic pH and stable up to pH 8-9, while in alcohols it ranged between 5-10 mg/ml. […] Some crystallizations trials were performed on compound 1 (103/33 F-710) in order to obtain suitable crystals for the X-ray structural characterization.

VA827901 B. cereus = test: MIC, broth microdilution (CLSI); type: cell-based; details: Bacillus cereus, 35°C, 18-24 hours
Method: (§2) Antibacterial activity. The antimicrobial activity of the antibiotic 103/33-F710 was determined by the broth microdilution method according to the procedures published by the Clinical and Laboratory Standards Institute (CLSI), formerly the National Committee for Clinical Laboratory Standards (NCCLS) (document M07-A9). Microorganisms were grown in either cation-adjusted Mueller Hinton Broth (Staphylococci, Enterococci, Moraxella catarrhalis, Escherichia coli), Todd Hewitt medium (Streptococci) or RPMI 1640 medium for Candida albicans on 96-well microtiter plates. Each bacterial strain was inoculated with 2-5×10^5 CFU/ml, Candida albicans with 10^4 CFU/ml. Cultures were incubated at 35°C in air. After 18-24 hours visual readings were performed and MICs (Minimal Inhibitory Concentrations) determined. The effect of 30% bovine serum was determined under the same experimental conditions. The strains used were clinical isolates or strains from American Type Culture Collection (ATCC). The antibiotic 103/33-F710 was dissolved in DMSO to obtain a 1000 µg/ml stock solution, and subsequently diluted in water to obtain working solution. Table 5: Antimicrobial activity reported as MIC (µg/ml) of ID103/33-F710

[1] = test system: VA801801 L. monocytogenes; test: MIC, broth microdilution (CLSI); type: cell-based; details: Listeria monocytogenes, 35°C, 18-24 hours
Method: as §2

VA645601 B. clausii = test: MIC, broth microdilution (CLSI); type: cell-based; details: Shouchella clausii, 35°C, 18-24 hours
Method: as §2

L145 C. albicans = test: MIC, broth microdilution (CLSI); type: cell-based; details: Candida albicans
Method: as §2
Antibacterial activity. The antimicrobial activity of the antibiotic 103/33-F696 was determined by the broth microdilution method according to the procedures disclosed in Example 7. Table 6: Antimicrobial activity reported as MIC (µg/ml) of compound 2 (103/33-F696)
Antibacterial activity. The antimicrobial activity of the antibiotic 103/33-F712 was determined by the broth microdilution method according to the procedures disclosed in Example 7. Table 7: Antimicrobial activity reported as MIC (µg/ml) of ID103/33-F712

[2] = Stability as a function of pH; type: physicochemical; details: basic pH
Method: as §1

[3] = test system: L4187 E. faecium VanA - Lnz R - Cpx R; test: microbe, parasite or virus in culture; type: cell-based; details: Enterococcus faecium; L4187 E. faecium VanA - Lnz R - Cpx R; cation-adjusted Mueller Hinton Broth, 35°C, 18-24 hours; read-out: MIC
Method: (§3) Antibacterial activity. […] Each bacterial strain was inoculated with 2-5×10^5 CFU/ml, Candida albicans with 10^4 CFU/ml. Cultures were incubated at 35°C in air. After 18-24 hours visual readings were performed and MICs (Minimal Inhibitory Concentrations) determined. The effect of 30% bovine serum was determined under the same experimental conditions. The strains used were clinical isolates or strains from American Type Culture Collection (ATCC).

[4] = test system: HepG2 cells from hepatocarcinoma; test: Cytotoxicity against human cells; type: cell-based; details: at 200 µg/ml, the highest concentration tested
[5] = test system: Staphylococcus aureus Smith 819 ATCC 19636; test: Murine septicemia model; type: in vivo; details: ATCC19636, intravenous administrations
Excerpt: Effectiveness. […] This level of protection was observed after intravenous administrations.

[6] = test system: VA80201 S. aureus CA-MRSA; test: MIC, broth microdilution (CLSI); type: cell-based; details: Staphylococcus aureus; VA80201 S. aureus CA-MRSA; cation-adjusted Mueller Hinton Broth, 35°C, 18-24 hours; read-out: MIC
Method: as §3

[7] = test system: L1729 S. haemolyticus MDR; test: MIC, broth microdilution (CLSI); type: cell-based; details: Staphylococcus haemolyticus
Method: as §3

L568 E. faecium = test: MIC, broth microdilution (CLSI); type: cell-based; details: Enterococcus faecium
Method: as §3

L560 E. faecalis VanA = test: MIC, broth microdilution (CLSI); type: cell-based; details: Enterococcus faecalis
Method: as §3

L100 S. aureus ATCC6538P = test: MIC, broth microdilution (CLSI); type: cell-based; details: Staphylococcus aureus
Method: as §3

L1730 S. haemolyticus = test: MIC, broth microdilution (CLSI); type: cell-based; details: Staphylococcus haemolyticus
Method: as §3

[8] = test system: L4061 S. aureus MRSA - GISA; test: MIC, broth microdilution (CLSI); type: cell-based; details: Staphylococcus aureus; L4061 S. aureus MRSA - GISA; cation-adjusted Mueller Hinton Broth, 35°C, 18-24 hours; read-out: MIC
Method: as §3

L44 S. pneumoniae = test: MIC, broth microdilution (CLSI); type: cell-based; details: Streptococcus pneumoniae
Method: as §3

L1577 S. epidermidis = test: MIC, broth microdilution (CLSI); type: cell-based; details: Staphylococcus epidermidis
Method: as §3

L819 S. aureus Smith = test: MIC, broth microdilution (CLSI); type: cell-based; details: Staphylococcus aureus
Method: as §3

L1400 S. aureus HA-MRSA = test: MIC, broth microdilution (CLSI); type: cell-based; details: Staphylococcus aureus
Method: as §3

L47 E. coli = test: MIC, broth microdilution (CLSI); type: cell-based; details: Escherichia coli
Method: as §3

L49 S. pyogenes C203 = test: MIC, broth microdilution (CLSI); type: cell-based; details: Streptococcus pyogenes
Method: as §3

L559 E. faecalis = test: MIC, broth microdilution (CLSI); type: cell-based; details: Enterococcus faecalis
Method: as §3

L569 E. faecium VanA = test: MIC, broth microdilution (CLSI); type: cell-based; details: Enterococcus faecium
Method: as §3

[9] = test system: VA8101 S. agalactiae (Group B); test: MIC, broth microdilution (CLSI); type: cell-based; details: Streptococcus agalactiae; VA8101 S. agalactiae (Group B); Todd Hewitt medium, 35°C, 18-24 hours; read-out: MIC
Method: as §3

human erythrocytes = test: Hemolytic activity; type: cell-based
[10] = test system: Hela cells from cervix adenocarcinoma; test: Cytotoxicity against human cells; type: cell-based; details: at 200 µg/ml
[11] = test system: BJ5TA - ATCC CRL-4401 normal fibroblast; test: Cytotoxicity against human cells; type: cell-based; details: at 200 µg/ml, the highest concentration tested
L3294 M. catarrhalis = test: MIC, broth microdilution (CLSI); type: cell-based; details: Moraxella catarrhalis
Method: as §3

COc1c(OC)c2c(=O)c3cc(C)n(C(CC4CN(C)C(=N)N4)C(=O)O)c(=O)c3c(=O)c2c2cc3c(=O)c4cc(O)cc(O)c4c(=O)c3c(OC)c12 (stereo not drawn) [compound 1, 2-(10,12-Dihydroxy-6,7,8-trimethoxy-3-methyl-1,5,9,14,16-pentaoxo-5,9,14,16-tetrahydro-1H-2-aza-hexaphen-2-yl)-3-(2-imino-1-methyl-imidazolidin-4-yl)-propionic acid]
Solubility (Solubility; acetone): scarcely soluble | Solubility (Solubility; at basic pH): more soluble | Solubility (Solubility; dimethylformamide (DMF)): soluble | Solubility (Solubility; methanol (MeOH)): scarcely soluble | Solubility (Solubility; most low to medium- polarity organic solvents): poor | Solubility (Solubility; organic solvent or mixture, dimethylsulfoxide (DMSO), read-out: Solubility): > 50000 µg/mL | Solubility (Solubility; organic solvent or mixture, in alcohols, read-out: Solubility): 5000 to 10000 µg/mL (≈ 7040 to 14100 µM) | Solubility (Solubility; water from acidic to neutral pH): poor | MIC (VA827901 B. cereus): 0.06 µg/mL (≈ 0.0844 µM) | MIC [1]: 0.06 µg/mL (≈ 0.0844 µM) | MIC (VA645601 B. clausii): 0.125 µg/mL (≈ 0.176 µM) | MIC (L145 C. albicans; L145 C. albicans, RPMI 1640 medium, 10^4 CFU/ml, 35°C, 18-24 hours, read-out: MIC): 256 µg/mL (≈ 360 µM) | stable up to pH [2]: 8-9 | MIC [3]: 2 µg/mL (≈ 2.81 µM) | toxicity against human cells [4]: no toxicity | ED50 [5]: 15 mg/kg | MIC [6]: 0.015 µg/mL (≈ 0.0211 µM) | MIC ([7]; L1729 S. haemolyticus MDR, cation-adjusted Mueller Hinton Broth, 35°C, 18-24 hours, read-out: MIC): 0.016 µg/mL (≈ 0.0225 µM) | MIC (L568 E. faecium; L568 E. faecium, cation-adjusted Mueller Hinton Broth, 35°C, 18-24 hours, read-out: MIC): 2 µg/mL (≈ 2.81 µM) | MIC (L560 E. faecalis VanA; L560 E. faecalis VanA, cation-adjusted Mueller Hinton Broth, 35°C, 18-24 hours, read-out: MIC): 0.03 µg/mL (≈ 0.0422 µM) | MIC (L100 S. aureus ATCC6538P; L100 S. aureus ATCC6538P, cation-adjusted Mueller Hinton Broth, 35°C, 18-24 hours, read-out: MIC): 0.03 µg/mL (≈ 0.0422 µM) | MIC (L1730 S. haemolyticus; L1730 S. haemolyticus, cation-adjusted Mueller Hinton Broth, 35°C, 18-24 hours, read-out: MIC): 0.03 µg/mL (≈ 0.0422 µM) | MIC [8]: 0.06 µg/mL (≈ 0.0844 µM) | MIC (L44 S. pneumoniae; L44 S. pneumoniae, Todd Hewitt medium, 35°C, 18-24 hours, read-out: MIC): 16 µg/mL (≈ 22.5 µM) | MIC (L1577 S. epidermidis; L1577 S. epidermidis, cation-adjusted Mueller Hinton Broth, 35°C, 18-24 hours, read-out: MIC): 0.06 µg/mL (≈ 0.0844 µM) | MIC (L819 S. aureus Smith; L819 S. aureus Smith, cation-adjusted Mueller Hinton Broth, 35°C, 18-24 hours, read-out: MIC): 0.06 µg/mL (≈ 0.0844 µM) | MIC (L1400 S. aureus HA-MRSA; L1400 S. aureus HA-MRSA, cation-adjusted Mueller Hinton Broth, 35°C, 18-24 hours, read-out: MIC): 0.03 µg/mL (≈ 0.0422 µM) | MIC (L47 E. coli; L47 E. coli, cation-adjusted Mueller Hinton Broth, 35°C, 18-24 hours, read-out: MIC): > 256 µg/mL | MIC (L49 S. pyogenes C203; L49 S. pyogenes C203, Todd Hewitt medium, 35°C, 18-24 hours, read-out: MIC): 16 µg/mL (≈ 22.5 µM) | MIC (L559 E. faecalis; L559 E. faecalis, cation-adjusted Mueller Hinton Broth, 35°C, 18-24 hours, read-out: MIC): 0.03 µg/mL (≈ 0.0422 µM) | MIC (L569 E. faecium VanA; L569 E. faecium VanA, cation-adjusted Mueller Hinton Broth, 35°C, 18-24 hours, read-out: MIC): 2 µg/mL (≈ 2.81 µM) | MIC [9]: 8 µg/mL (≈ 11.3 µM) | hemolytic activity (human erythrocytes): no hemolytic activity | toxicity against human cells ([10]; Hela cells, the highest concentration tested): no toxicity | inhibit replication of HeLa cell [10]: does not inhibit | toxicity against human cells [11]: no toxicity

COc1c(OC)c2c(=O)c3cc(C)n(C(CC4CN(C)C(=N)N4)C(=O)O)c(=O)c3c(=O)c2c2cc3c(=O)c4cc(O)cc(O)c4c(=O)c3c(O)c12 (stereo not drawn) [compound 2, 2-(8,10,12-Trihydroxy-6,7-dimethoxy-3-methyl-1,5,9,14,16-pentaoxo-5,9,14,16-tetrahydro-1H-2-aza-hexaphen-2-yl)-3-(2-imino-1-methyl-imidazolidin-4-yl)-propionic acid]
MIC (L145 C. albicans): > 512 µg/mL | MIC [7]: 0.06 µg/mL (≈ 0.0861 µM) | MIC (L568 E. faecium): 0.125 µg/mL (≈ 0.179 µM) | MIC (L560 E. faecalis VanA): 0.03 µg/mL (≈ 0.0431 µM) | MIC (L100 S. aureus ATCC6538P; ATCC6538P): 0.03 µg/mL (≈ 0.0431 µM) | MIC (L1730 S. haemolyticus): 0.03 µg/mL (≈ 0.0431 µM) | MIC (L44 S. pneumoniae): 32 µg/mL (≈ 45.9 µM) | MIC (L1577 S. epidermidis): 0.03 µg/mL (≈ 0.0431 µM) | MIC (L819 S. aureus Smith): 0.015 µg/mL (≈ 0.0215 µM) | MIC (L1400 S. aureus HA-MRSA; MRSA): 0.03 µg/mL (≈ 0.0431 µM) | MIC (L47 E. coli): > 512 µg/mL | MIC (L49 S. pyogenes C203): 1 µg/mL (≈ 1.44 µM) | MIC (L559 E. faecalis): 0.03 µg/mL (≈ 0.0431 µM) | MIC (L569 E. faecium VanA): 0.5 µg/mL (≈ 0.718 µM) | MIC (L3294 M. catarrhalis): 64 µg/mL (≈ 91.9 µM)
